Laboratory results taken from patent US5432261A, “Motlin-like polypeptide and use thereof” (priority 1989, dated 1995).
Where two headings read alike, the source gives them in different places. Square brackets hold non-standard residues; d marks the D form. Peptide text beside a SMILES is read from it. hSer = N[C@@H](CCO)C(=O)O

Molecular target: upper small intestine of rabbit (Oryctolagus cuniculus, UniProt G1T803)
Assay: Intestinal contraction activity by Magnus method using upper small intestine of rabbit
Method: An intestinal contraction activity was measured by Magnus method using upper small intestine of rabbit ["J. Pharm. Pharmac.", Vol. 28, pages 650-651 (1976)], on each motilin-like polypeptides (Example 1, wherein R1 is Hse, Asp-Gly-Ile-Phe-Hse, or Arg-Ile-Phe-Hse) according to the invention, as test samples and a conventional pure [Leu^13 ]-motilin, as control sample. The activities of the test samples and control sample were compared, under assumption of that an contraction activity caused by 10^-6 M acetylcholine is 100%.

Sequence of upper small intestine of rabbit (G1T803 1-400): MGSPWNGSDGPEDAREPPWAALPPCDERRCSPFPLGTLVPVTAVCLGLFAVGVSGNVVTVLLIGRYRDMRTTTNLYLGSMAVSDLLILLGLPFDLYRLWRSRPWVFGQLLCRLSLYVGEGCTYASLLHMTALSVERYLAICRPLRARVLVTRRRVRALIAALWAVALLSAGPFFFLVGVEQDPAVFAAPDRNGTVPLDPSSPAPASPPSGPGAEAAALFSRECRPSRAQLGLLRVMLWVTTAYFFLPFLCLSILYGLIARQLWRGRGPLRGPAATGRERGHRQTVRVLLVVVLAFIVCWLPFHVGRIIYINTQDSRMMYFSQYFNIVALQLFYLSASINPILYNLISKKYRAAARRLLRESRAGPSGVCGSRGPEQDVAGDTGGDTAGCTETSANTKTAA

CC[C@H](C)[C@H](NC(=O)[C@H](CCC(=O)O)NC(=O)CNC(=O)[C@H](Cc1ccc(O)cc1)NC(=O)[C@@H](NC(=O)[C@H](Cc1ccccc1)NC(=O)[C@@H](NC(=O)[C@@H]1CCCN1C(=O)[C@@H](NC(=O)[C@@H](N)Cc1ccccc1)C(C)C)[C@@H](C)CC)[C@@H](C)O)C(=O)N[C@@H](CCC(N)=O)C(=O)N[C@@H](CCCNC(=N)N)C(=O)N[C@@H](CC(C)C)C(=O)N[C@@H](CCC(N)=O)C(=O)N[C@@H](CCC(=O)O)C(=O)N[C@@H](CCCCN)C(=O)N[C@@H](CCC(=O)O)C(=O)N[C@@H](CCCNC(=N)N)C(=O)N[C@@H](CC(N)=O)C(=O)N[C@@H](CCCCN)C(=O)NCC(=O)N[C@@H](CCC(N)=O)C(=O)N[C@@H](CCO)C(=O)O [(10) -Ile--Leu--Hse] (H-FVPIFTYGEIQRLQEKERNKGQ[hSer]-OH)
Activity in vitro (%): 110%

CC[C@H](C)[C@H](NC(=O)[C@@H]1CCCN1C(=O)[C@@H](NC(=O)[C@@H](N)Cc1ccccc1)C(C)C)C(=O)N[C@@H](Cc1ccccc1)C(=O)N[C@H](C(=O)N[C@@H](Cc1ccc(O)cc1)C(=O)NCC(=O)N[C@@H](CCC(=O)O)C(=O)N[C@@H](CC(C)C)C(=O)N[C@@H](CCC(N)=O)C(=O)N[C@@H](CCCNC(=N)N)C(=O)N[C@@H](CCSC)C(=O)N[C@@H](CCC(N)=O)C(=O)N[C@@H](CCC(=O)O)C(=O)N[C@@H](CCCCN)C(=O)N[C@@H](CCC(=O)O)C(=O)N[C@@H](CCCNC(=N)N)C(=O)N[C@@H](CC(N)=O)C(=O)N[C@@H](CCCCN)C(=O)NCC(=O)N[C@@H](CCC(N)=O)C(=O)O)[C@@H](C)O [motilin, reference compound]
Activity in vitro (%) (Magnus method, from ED50, contraction activity of native motilin = 100%): 100%

CC[C@H](C)[C@H](NC(=O)[C@@H]1CCCN1C(=O)[C@@H](NC(=O)[C@@H](N)Cc1ccccc1)C(C)C)C(=O)N[C@@H](Cc1ccccc1)C(=O)N[C@H](C(=O)N[C@@H](Cc1ccc(O)cc1)C(=O)NCC(=O)N[C@@H](CCC(=O)O)C(=O)N[C@@H](CC(C)C)C(=O)N[C@@H](CCC(=O)O)C(=O)N[C@@H](CCCNC(=N)N)C(=O)N[C@@H](CC(C)C)C(=O)N[C@@H](CCC(N)=O)C(=O)N[C@@H](CCC(=O)O)C(=O)N[C@@H](CCCCN)C(=O)N[C@@H](CCC(=O)O)C(=O)N[C@@H](CCCNC(=N)N)C(=O)N[C@@H](CC(N)=O)C(=O)N[C@@H](CCCCN)C(=O)NCC(=O)N[C@@H](CCC(N)=O)C(=O)N[C@@H](CCO)C(=O)O)[C@@H](C)O [(11) -Glu--Leu--Hse] (H-FVPIFTYGELERLQEKERNKGQ[hSer]-OH)
Activity in vitro (%): 110%
